# Source: ChEMBL document CHEMBL1136416, “Identification of a stable chymase inhibitor using a pharmacophore-Based database search” (Bioorg Med Chem Lett, 2003)
# “And” between values parts separate entries of the source, which are not always exact repeats. Equal values may be shown once.
# Tested on: not listed separately
# Assay: Percent compound remaining in human plasma after incubation for 60 min at 37 C.
# Assay type: ADME, cell-free
# Conditions: read-out: Stability
row,remaining at 1 h,Compound
1,11.8%,O=C(Oc1ccc(Cl)cc1)c1cnc(C2COc3ccccc3O2)s1 (centres undefined)
2,100%,CCCS(=O)(=O)c1ccc(NS(=O)(=O)c2sc3ccc(Cl)cc3c2C)cc1

# Target: T1, Chymase (Homo sapiens) (UniProt P23946)
# T1 sequence (whole entry): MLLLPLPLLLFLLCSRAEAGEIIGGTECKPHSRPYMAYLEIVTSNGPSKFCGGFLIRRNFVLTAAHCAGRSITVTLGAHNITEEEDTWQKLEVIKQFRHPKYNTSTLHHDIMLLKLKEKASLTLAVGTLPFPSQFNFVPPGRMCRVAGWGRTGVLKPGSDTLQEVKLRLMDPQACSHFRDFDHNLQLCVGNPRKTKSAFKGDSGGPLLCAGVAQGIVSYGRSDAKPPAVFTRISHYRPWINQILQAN
# Assay: Inhibitory activity against serine protease chymase was determined at 1 uM
# Conditions: not given
row,inhibition,Compound
1,> 30%,O=C(Oc1ccc(Cl)cc1)c1cnc(C2COc3ccccc3O2)s1 (centres undefined)
2,> 30%,CCCS(=O)(=O)c1ccc(NS(=O)(=O)c2sc3ccc(Cl)cc3c2C)cc1
3,36.5% and > 30%,CSc1[nH]nc(NC(=O)c2ccc(Cl)cc2)c1S(=O)(=O)c1ccc(Cl)cc1

# Tested on: not listed separately
# Assay: Percent remaining in human plasma after incubation for 60 min at 37 C.
# Assay type: ADME, cell-free
# Conditions: read-out: Stability
row,remaining at 1 h,Compound
1,6.4%,CSc1[nH]nc(NC(=O)c2ccc(Cl)cc2)c1S(=O)(=O)c1ccc(Cl)cc1

# Target: T1, Chymase (Homo sapiens)
# Assay: Inhibitory activity against serine protease chymase was determined
# Conditions: not given
row,Inhibitory activity,Compound
1,0.61 µM,COC(=O)c1ccc(C(=O)n2cnc3cc4ccccc4cc3c2=O)cc1
2,3.24 µM,Cc1ccc(C(=O)Sc2nnc(SC(=O)c3ccc(C)cc3)s2)cc1
3,141 µM,Cc1ccc(/C=C2\SC(=O)N(CSc3ccc4ccccc4c3)C2=O)o1
4,190 µM,Cc1ccc(/C=C2\SC(=O)N(Cc3ccc4ccccc4c3)C2=O)o1
5,608 µM,O=C1ON(S(=O)(=O)c2ccc3ccccc3c2)C(=O)/C1=C/c1ccc(F)cc1
6,176 µM,O=C1c2ccccc2C(=O)N1S(=O)(=O)c1ccc2ccccc2c1
7,75 µM,Cc1ccc(C(=O)Nc2nnc(C(=O)c3ccccc3)s2)cc1
8,0.691 µM,O=C1S/C(=C/c2ccc(O)cc2)C(=O)N1S(=O)(=O)c1ccc2ccccc2c1
9,87 µM,Cc1ccc(-c2nnc(NC(=O)c3ccc4ccccc4c3)s2)o1
10,0.683 µM,Cc1ccc(/C=C2\SC(=O)N(C(=O)c3cccc(-c4ccccc4)c3)C2=O)o1
11,48 µM,Cc1ccc(C(=O)Nc2nnc(SC(=O)c3ccc(C)cc3)s2)cc1
12,24 µM,Cc1ccc(/C=C2\SC(=O)N(CS(=O)(=O)c3ccc4ccccc4c3)C2=O)o1
13,321 µM,Clc1ccc(CNc2nnc(Sc3nc4ccccc4s3)s2)cc1
14,53 µM,O=C1ON(C(=O)c2ccc3ccccc3c2)C(=O)/C1=C/c1ccc(O)c(O)c1
15,14 µM,O=C(Nc1nnc(Sc2nc3ccccc3s2)s1)C(Cl)(Cl)Cl
16,273 µM,O=C1SC(Cc2ccc3ccccc3c2)C(=O)N1Cc1ccoc1 (centres undefined)
17,0.097 µM,Cc1ccc(/C=C2\SC(=O)N(C(=O)c3ccc4ccccc4c3)C2=O)o1
18,3.6 µM,O=C(Oc1ccccc1)N1C(=O)S/C(=C\c2ccco2)C1=O
19,4.22 µM,COC(=O)C(c1ccc2ccccc2c1)N1C(=O)S/C(=C\c2ccc(C)o2)C1=O (centres undefined)
20,4.54 µM,Cc1ccc(/C=C2\SCCN(C(=O)c3ccc4ccccc4c3)C2=O)o1
21,8.91 µM,Cc1ccc(/C=C2\SC(C)(C)N(C(=O)c3ccc4ccccc4c3)C2=O)o1
22,0.308 µM,O=C(Nc1nnc(Sc2nc3ccccc3s2)s1)c1ccc(Cl)cc1
23,27 µM,O=C(Nc1nnc(SCc2nc3ccccc3s2)s1)c1ccc(Cl)cc1
24,1.34 µM,O=C(Nc1nnc(Sc2nc3ccccc3s2)s1)c1ccccc1
25,0.081 µM,O=C1S/C(=C\c2ccsc2)C(=O)N1C(=O)c1ccc2ccccc2c1
26,3.46 µM,O=c1n(S(=O)(=O)c2ccc3ccccc3c2)c2ccccc2n1S(=O)(=O)c1ccc2ccccc2c1

# Same assay, conditions: concentration not given here
row,inhibition,Compound
1,17.8%,O=C(Oc1ccc(Cl)cc1)c1cnc(C2COc3ccccc3O2)s1 (centres undefined)

# Target: T2, Chymase (Homo sapiens, UniProt P23946)
# T2 sequence (P23946 whole entry): T1 sequence (whole entry)
# Assay: Inhibitory concentration against serine protease chymase was determined
# Conditions: not given
row,IC50,Compound
1,909 nM,CCCS(=O)(=O)c1ccc(NS(=O)(=O)c2sc3ccc(Cl)cc3c2C)cc1
